The results in this text go back to ChEMBL document CHEMBL1201862, “PubChem BioAssay data set” (2004).

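48-hour exposure; five concentrations; linearly interpolated endpoints. GI50 = concentration required for 50% inhibition of growth.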 Activity calls are given as the source filed them. Rule as the data show it: active = GI50 up to about 1.1 µM and inactive = higher. A value given as a limit tells only on which side of the number the result lay.

Assay in all cases: NCI tumour cell line growth inhibition, 48 h
Assay [1] deals with NCI-H23.
The subject of assay [2] is CAKI-1.
In assay [3] the test system is NCI/ADR-RES.
For assay [4], the system named is LOX IMVI.
For assay [5], the system named is UACC-257.
Assay [6] concerns OVCAR-3.
Assay [7] deals with Hs-578T.
In assay [8] the test system is OVCAR-4.
Assay [9] has as its system SF-268.
In assay [10] the test system is UO-31.
Assay [11] concerns SK-MEL-5.
Assay [12] relates to HOP-62.
Assay [13] has as its system TK-10.
The subject of assay [14] is A498.
The test system of assay [15] is 786-0.
Assay [16] concerns NCI-H522.
Assay [17] concerns SF-295.
The test system of assay [18] is MDA-MB-435.
Assay [19] concerns HCT-15.
Assay [20] has as its system EKVX.

With `COC(=O)c1cc2c(cc1CC(Cc1ccc3c(c1)CCCC3)C(=O)OC)CCCC2` (stereo not drawn), the GI50 was 54.1 µM (inactive) in assay [1]; > 100 µM (inactive) in [2]; 41.3 µM (inactive) in [3]; 28.2 µM (inactive) in [4]; 16.4 µM (inactive) in assay [5]; 44.6 µM (inactive) in assay [6]. Further, the GI50 in assay [7] was 93.3 µM (inactive); in assay [8], 29.9 µM (inactive); in assay [9], 29 µM (inactive); in assay [10], > 100 µM (inactive); in assay [11] it was 24.5 µM (inactive); in assay [12] it was > 100 µM (inactive). The GI50 in assay [13] is 95.3 µM (inactive); in [14] it was > 100 µM (inactive); in [15], 45.4 µM (inactive); in assay [16] it was 54.5 µM (inactive); in assay [17], 76 µM (inactive); in assay [18], 40.6 µM (inactive). Further, the GI50 in assay [19] was 35.7 µM.
As for `CC1CC[C@@]2(OC1)OC1C[C@H]3[C@@H]4CC[C@H]5CC(OC6OC(CO)C(OC7OC(CO)C(O)C(O)C7OC7OC(CO)C(O)C(O)C7O)C(O)C6O)CCC5(C)[C@H]4CCC3(C)C1[C@@H]2C` (stereo partly drawn), the GI50 is 3.89 µM (inactive) in [1]; 3.21 µM (inactive) in [2]; 6.38 µM (inactive) in assay [3]; 1.76 µM (inactive) in [4]; 4.31 µM (inactive) in assay [5]; 1.8 µM (inactive) in assay [6]. For the same compound, the GI50 was 1.99 µM (inactive) in assay [7]; 1.14 µM (inactive) in assay [8]; 2.75 µM (inactive) in assay [9]; 0.993 µM (active) in assay [10]; 6.89 µM (inactive) in assay [11]; 1.44 µM (inactive) in assay [12]. For the same compound, the GI50 in assay [13] was 1.61 µM (inactive); in assay [14], 1.52 µM (inactive); in assay [15] it was 1.56 µM (inactive); in [16] it was 1.63 µM (inactive); in assay [20] it was 0.977 µM (active); in [17], 4.26 µM (inactive). The GI50 in assay [18] was 2.65 µM (inactive); in assay [19], 10.3 µM.
Regarding `COc1nc2ncc([C@@H](O)[C@H](O)CO)nc2c(=O)[nH]1`, the GI50 in [2], in [3], in [4], in assay [5], in assay [6] and in assay [7] was > 100 µM (inactive) each time. Moreover, the GI50 in [8], in assay [9], in assay [10], in assay [11], in assay [12] and in assay [13] was > 100 µM (inactive) each time. In addition, the GI50 in assay [14], in assay [15], in assay [16], in [20], in [17] and in assay [18] was > 100 µM (inactive) each time. Also, the GI50 in [19] was above 100 µM.
Turning to `CN(C)CCNC(=O)Cn1cc([N+](=O)[O-])c(=O)c2ccccc21`, the GI50 in assay [1], in [2], in assay [3], in [5], in assay [6] and in [7] was > 100 µM (inactive) in each case. The GI50 in assay [9], in [10], in assay [11], in assay [12], in [13] and in [14] was > 100 µM (inactive) throughout. In addition, the GI50 was > 100 µM (inactive) in [15]; > 100 µM (inactive) in assay [16]; > 100 µM (inactive) in assay [17]; > 100 µM (inactive) in [18]; above 100 µM in [19].
As for `COc1ccc(C2C(C#N)=C(S)N(C3OC(CO)C(O)C(O)C3O)C(C)=C2C(C)=O)cc1` (stereo not drawn), the GI50 was > 100 µM (inactive) in assay [1]; > 100 µM (inactive) in assay [3]; > 100 µM (inactive) in assay [4]; > 100 µM (inactive) in assay [5]; 47.3 µM (inactive) in assay [6]; > 100 µM (inactive) in assay [7]. In addition, the GI50 in [8] is > 100 µM (inactive); in assay [9], > 100 µM (inactive); in assay [10] it was > 100 µM (inactive); in assay [11], 42.2 µM (inactive); in assay [12], > 100 µM (inactive); in assay [13], > 100 µM (inactive). The GI50 was > 100 µM (inactive) in assay [14]; > 100 µM (inactive) in assay [15]; 60.4 µM (inactive) in assay [16]; > 100 µM (inactive) in [17]; > 100 µM (inactive) in assay [18]; above 100 µM in assay [19].
As for `O=C(Nn1c(-c2ccccc2)nc2ccccc2c1=O)c1ccccc1O`, the GI50 in assay [1] was 34.4 µM (inactive); in assay [3], 34.4 µM (inactive); in [4] it was 48.6 µM (inactive); in assay [5], 45.6 µM (inactive); in assay [6], 30.3 µM (inactive); in assay [7] it was > 100 µM (inactive). Moreover, the GI50 in assay [8] was 30.7 µM (inactive); in [9], 45.7 µM (inactive); in assay [10] it was 36.7 µM (inactive); in assay [11], 19.4 µM (inactive); in assay [12], 76.9 µM (inactive); in assay [13], 75.9 µM (inactive). In addition, the GI50 in assay [14] is 71.6 µM (inactive); in assay [15] it was 65.2 µM (inactive); in assay [16], 32.9 µM (inactive); in assay [20], > 100 µM (inactive); in [17], 63.2 µM (inactive); in assay [18], 49.4 µM (inactive). The compound also gave a GI50 in assay [19] of 29.4 µM.
For `O=C1c2sc(-c3ccc(Cl)cc3)cc2-n2cccc21`, the GI50 in assay [2], in [3], in assay [4], in [5], in assay [6] and in [7] was > 100 µM (inactive) throughout. The GI50 in [8], in assay [9], in [10], in assay [11], in [12] and in assay [13] was > 100 µM (inactive) in each case. Further, the GI50 in assay [14], in [15], in [16], in assay [20], in [17] and in assay [18] was > 100 µM (inactive) in each case. The compound further registered a GI50 in assay [19] above 100 µM.
Regarding `Cc1cccc(Nc2cn(COCc3ccccc3)c(=O)[nH]c2=O)c1`, the GI50 in assay [1] was > 100 µM (inactive); in [2] it was > 100 µM (inactive); in assay [3], 14.4 µM (inactive); in assay [4], 56.2 µM (inactive); in assay [5], > 100 µM (inactive); in [6], > 100 µM (inactive). The GI50 was 49.3 µM (inactive) in [7]; 41.5 µM (inactive) in assay [8]; 50 µM (inactive) in assay [9]; > 100 µM (inactive) in assay [10]; > 100 µM (inactive) in [11]; 20.8 µM (inactive) in assay [12]. Besides, the GI50 was > 100 µM (inactive) in assay [14]; > 100 µM (inactive) in [15]; 10.2 µM (inactive) in [16]; 15.3 µM (inactive) in [20]; 72.1 µM (inactive) in assay [17]; > 100 µM (inactive) in assay [18]. In assay [19], the GI50 is above 100 µM.
For `Cc1cc(O)nc2c3c(ccc12)OC(C)(C)C=C3`, the GI50 is 5.46 µM (inactive) in assay [1]; 5.93 µM (inactive) in [2]; 3.99 µM (inactive) in assay [3]; > 25.3 µM (inactive) in assay [5]; 4.28 µM (inactive) in assay [6]; 3.52 µM (inactive) in [7]. Moreover, the GI50 in assay [8] was 18.6 µM (inactive); in assay [9] it was 6.7 µM (inactive); in assay [10], 8.18 µM (inactive); in assay [11], 3.82 µM (inactive); in [12] it was 8.2 µM (inactive); in assay [13], > 100 µM (inactive). Besides, the GI50 in [14] was 10.2 µM (inactive); in assay [15], 6.7 µM (inactive); in [16], 6.67 µM (inactive); in assay [20] it was 14.9 µM (inactive); in [17] it was 10.3 µM (inactive); in assay [18], 1.82 µM (inactive). This compound had a GI50 in assay [19] of 4.85 µM.
In the case of `COC(=O)/C1=C/c2c([nH]c3ccccc23)/C(C(=O)OC)=C\c2c1[nH]c1ccccc21` [CAULERPIN], the GI50 in [1] was 38.1 µM (inactive); in assay [2], 37.9 µM (inactive); in [3] it was > 50 µM (inactive); in assay [4] it was 18.7 µM (inactive); in assay [5] it was > 50 µM (inactive); in assay [6], 24.8 µM (inactive). The GI50 in assay [7] is 16.8 µM (inactive); in assay [9], 19.5 µM (inactive); in assay [10], 7.6 µM (inactive); in [11], 28.8 µM (inactive); in [12], 10.9 µM (inactive); in assay [13], 32.6 µM (inactive). Also, the GI50 is 39.2 µM (inactive) in assay [14]; 11.2 µM (inactive) in [15]; 6.08 µM (inactive) in assay [16]; > 50 µM (inactive) in assay [20]; 40.3 µM (inactive) in assay [17]; 14.7 µM (inactive) in assay [18]. The GI50 in assay [19] is 22 µM.
